Test results as given in patent US20260191783A1, “DRUG DELIVERY FORMULATIONS” (The Regents of the University of California, priority 2018, published 2026).

How the values were obtained:
[1] = type: physicochemical
Experimental: Oxidized porous silicon microparticles were prepared using a similar method to those used for segesterone acetate melt casting described elsewhere (75% porosity, 800° C. oxidation). […] Once molten, the LNG-CHOL mixture was left to infiltrate the porous silica materials for 5 minutes before cooling to room temperature. The oxidized porous silicon material containing LNG-CHOL was then recovered and ground into microparticles using a mortar and pestle. The loaded oxidized porous silicon particles were then evaluated for their release kinetics in 1×PBS (pH 7.4) at 37° C. Approximately 2 mg of LNG-PSi were placed in a glass vial containing 3.5 mL of 1×PBS and placed in a 37° C. incubator on a moving platform to induce mild agitation of the solution. 3 mL of the PBS was removed every 24 hours and replaced with fresh solution. The extracted supernatant was then analyzed for LNG content by high performance liquid chromatography (HPLC).

estrogen receptor = target: T1, estrogen receptor (Homo sapiens, UniProt P03372); conditions: cited from earlier work
T1 sequence (P03372 1-595): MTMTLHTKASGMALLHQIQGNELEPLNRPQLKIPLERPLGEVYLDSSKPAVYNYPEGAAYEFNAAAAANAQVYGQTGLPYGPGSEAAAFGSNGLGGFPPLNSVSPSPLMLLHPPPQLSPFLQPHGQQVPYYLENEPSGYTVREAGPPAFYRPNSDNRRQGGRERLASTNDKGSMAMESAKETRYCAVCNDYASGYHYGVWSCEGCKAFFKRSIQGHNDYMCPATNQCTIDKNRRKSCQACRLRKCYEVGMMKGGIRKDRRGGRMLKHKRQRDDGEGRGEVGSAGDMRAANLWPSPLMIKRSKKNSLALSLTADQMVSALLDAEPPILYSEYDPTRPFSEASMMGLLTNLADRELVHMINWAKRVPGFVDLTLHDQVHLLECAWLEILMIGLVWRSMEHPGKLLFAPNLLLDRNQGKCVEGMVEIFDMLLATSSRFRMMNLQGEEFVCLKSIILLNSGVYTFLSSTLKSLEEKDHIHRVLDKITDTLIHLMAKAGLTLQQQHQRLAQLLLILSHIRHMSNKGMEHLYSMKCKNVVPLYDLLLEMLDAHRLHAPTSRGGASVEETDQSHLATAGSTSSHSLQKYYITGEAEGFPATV

androgen receptor = target: T2, androgen receptor (Homo sapiens, UniProt P10275); conditions: cited from earlier work
T2 sequence (P10275 1-920): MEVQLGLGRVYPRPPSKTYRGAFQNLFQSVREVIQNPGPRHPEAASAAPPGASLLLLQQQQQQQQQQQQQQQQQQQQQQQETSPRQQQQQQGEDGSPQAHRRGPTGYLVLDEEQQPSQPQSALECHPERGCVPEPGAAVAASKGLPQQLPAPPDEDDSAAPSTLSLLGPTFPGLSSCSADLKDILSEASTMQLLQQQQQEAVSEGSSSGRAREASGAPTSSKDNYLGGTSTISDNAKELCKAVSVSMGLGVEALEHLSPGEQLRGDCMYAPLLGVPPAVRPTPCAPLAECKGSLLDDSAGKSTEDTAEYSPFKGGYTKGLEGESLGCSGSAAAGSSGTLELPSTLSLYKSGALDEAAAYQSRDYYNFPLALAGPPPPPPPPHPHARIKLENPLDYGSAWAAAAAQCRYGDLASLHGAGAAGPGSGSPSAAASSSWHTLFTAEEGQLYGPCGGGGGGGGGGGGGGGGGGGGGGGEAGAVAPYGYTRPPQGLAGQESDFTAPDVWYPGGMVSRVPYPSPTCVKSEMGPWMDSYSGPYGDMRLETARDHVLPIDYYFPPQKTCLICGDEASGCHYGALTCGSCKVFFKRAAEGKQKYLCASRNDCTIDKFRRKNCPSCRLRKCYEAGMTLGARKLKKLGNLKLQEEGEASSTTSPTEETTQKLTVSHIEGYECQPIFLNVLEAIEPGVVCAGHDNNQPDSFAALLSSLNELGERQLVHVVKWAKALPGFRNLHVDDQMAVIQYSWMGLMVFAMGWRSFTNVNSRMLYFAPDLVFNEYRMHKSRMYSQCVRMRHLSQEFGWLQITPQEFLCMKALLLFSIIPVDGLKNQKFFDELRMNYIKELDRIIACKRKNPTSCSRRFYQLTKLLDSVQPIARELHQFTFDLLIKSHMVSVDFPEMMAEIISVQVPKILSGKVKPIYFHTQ

[2] = Serum segesterone acetate by HPLC-MS/MS after subcutaneous injection; conditions: rat, 50 mg/kg SEG
Experimental: In Vivo Performance. In vivo studies were performed in female adult Sprague-Dawley rats, weighing approximately 300 g each. […] Animals received a subcutaneous injection in the scruff of the neck containing 50 mg/kg SEG.
For longer term studies, five experimental groups (n=5 animals each) were studied: empty porous silica particles, pure non-micronized SEG, medium porosity 70 wt % segesterone acetate loaded particles and two groups of two different batches of high porosity 70 wt % segesterone acetate loaded particles. The five groups were monitored for 6 months with body weight measurements and tail-vein blood draws taken weekly.
Serum samples were processed and submitted to a third-party lab for segesterone acetate detection via HPLC-MS/MS.

[3] = In vitro dissolution / segesterone acetate release in 1x PBS; type: physicochemical; conditions: 1x PBS pH 7.4, 37° C., mild agitation, starting SEG 0.4 mg/mL
Experimental: Modulation of Segesterone Acetate Release Profile. Three main particle parameters were investigated as to their effect on the release of loaded SEG: particle oxidation temperature, drug loading, and particle porosity. Unless otherwise mentioned, the baseline particle formulation used was 55% porosity, oxidized at 800° C. and had segesterone acetate loading of 70% weight/weight. Drug release was modeled by in vitro dissolution in 1× phosphate buffered saline (pH 7.4) under mild agitation at 37° C. For all studies, starting segesterone acetate concentration was kept constant at 0.4 mg/mL based on the percent loading of the given formulation. […] Segesterone acetate concentrations were evaluated by HPLC with absorbance measurements at 254 nm.

Q: What does the source list for `C#C[C@]1(OC(=O)CCC)CC[C@H]2[C@@H]3CCC4=CC(=O)CC[C@@H]4[C@H]3CC[C@@]21CC` [Levonorgestrel Butanoate]?
A: Tdegradeable (STA under nitrogen flow): 230 °C; Window [Tdegradeable − Tmelt] (difference between melting and degradation temperatures, STA under nitrogen flow): 26 °C

Q: What does the source list for `C#C[C@]1(O)CC[C@H]2[C@@H]3CCC4=CC(=O)CC[C@@H]4[C@H]3CC[C@@]21CC` [Levonorgestrel]?
A: temperature at which the drug began to lose mass (oxygen atmosphere, heating rate 10° C.): approximately 233 °C; chemical alteration or degradation by the melt casting process [1]: not chemically altered or degraded

Q: What does the source list for `C=C1C[C@H]2[C@@H]3CCC4=CC(=O)CC[C@@H]4[C@H]3CC[C@]2(C)[C@@]1(OC(C)=O)C(C)=O` [segesterone acetate]?
A: binding to the estrogen receptor (estrogen receptor): does not significantly bind; binding to the androgen receptor (androgen receptor): does not significantly bind; segesterone acetate detection in serum at terminal 6-month timepoint [2]: still detected; duration of segesterone acetate release / time to full clearance from the test chamber ([3]; listed as crystalline segesterone acetate controls): 40 days; duration of segesterone acetate release / time to full clearance from the test chamber ([3]; listed as pure segesterone acetate): 35 to 40 days
